Assay results: patent US10875876B2, “Cyclized sulfamoylarylamide derivatives and the use thereof as medicaments for the treatment of hepatitis B” (priority 2015, dated 2020)

How the values were obtained:
[1] = Cytotoxicity in HepG2 cells, Resazurin assay; details: human, HepG2 cells, TOX-HepG2-4 d CC50 (μM), HepG2 cells incubated for 4 days, viability by Resazurin assay
HBV = assay: anti HBV activity, HepG2.117 cell line, intracellular HBV DNA by realtime PCR; assay type: cell-based; details: Hepatitis B virus, HepG2.117, 72 h, HepG2.117 cell line (Tet-off), 3 days of treatment, intracellular HBV DNA quantified by realtime PCR; read-out: HBV-AVE-HepG2.117 EC50
Procedure, shortened: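 Readout was intracellular HBV DNA by real-time PCR (HBV-specific primers and probe) after 3 days of compound exposure. Serial dilutions were tested in duplicate on HepG2.117 cells, a stable inducible HBV producer in which replication is switched on when doxycycline is absent.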

Row | Compound | CC50 at 4 days [1] [µM] | EC50 (HBV) [nM]
1 | CC1/C=C\Cc2c(cn(C)c2C(=O)Nc2ccc(F)c(F)c2)S(=O)(=O)N1 (centres unmarked) [Compound 5, (4Z)—N-(3,4-difluorophenyl)-3,8-dimethyl-1,1-dioxo-3,6-dihydro-2H-pyrrolo[3,4-g]thiazocine-7-carboxamide] | > 25 | 180
2 | CC1Cc2c(cn(C)c2C(=O)Nc2ccc(F)c(F)c2)S(=O)(=O)N1 (centres unmarked) [Compound 11, N-(3,4-difluorophenyl)-3,6-dimethyl-1,1-dioxo-3,4-dihydro-2H-pyrrolo-[3,4-e]thiazine-5-carboxamide] | > 25 | 77
3 | CC1COc2c(ccc(F)c2C(=O)Nc2ccc(F)c(F)c2)S(=O)(=O)N1 (centres unmarked) [Compound 12, N-(3,4-difluorophenyl)-7-fluoro-3-methyl-1,1-dioxo-3,4-dihydro-2H-5,1λ^6,2-benzoxathiazepine-6-carboxamide] | > 25 | 350
4 | Cn1cc2c(c1C(=O)Nc1ccc(F)c(F)c1)CCNS2(=O)=O [Compound 13, N-(3,4-difluorophenyl)-6-methyl-1,1-dioxo-3,4-dihydro-2H-pyrrolo-[3,4-e]thiazine-5-carboxamide] | > 25 | 110
5 | CC(C)N1CCc2c(cn(C)c2C(=O)Nc2ccc(F)c(F)c2)S1(=O)=O [Compound 16, N-(3,4-difluorophenyl)-2-isopropyl-6-methyl-1,1-dioxo-3,4-dihydropyrrolo[3,4-e]thiazine-5-carboxamide] | > 25 | 230
6 | CCC1Cc2c(cn(C)c2C(=O)Nc2ccc(F)c(F)c2)S(=O)(=O)N1 (centres unmarked) [Compound 17, N-(3,4-difluorophenyl)-3-ethyl-6-methyl-1,1-dioxo-3,4-dihydro-2H-pyrrolo[3,4-e]thiazine-5-carboxamide] | > 25 | < 98
7 | CC1C=Cc2c(cn(C)c2C(=O)Nc2ccc(F)c(F)c2)S(=O)(=O)N1C (centres unmarked) [Compound 18, N-(3,4-difluorophenyl)-2,3,7-trimethyl-1,1-dioxo-3H-pyrrolo-[3,4-f]thiazepine-6-carboxamide] | > 25 | 710
8 | Cn1cc2c(c1C(=O)Nc1ccc(F)c(F)c1)OCC1(CC1)NS2(=O)=O [Compound 19, N-(3,4-difluorophenyl)-7-methyl-1,1-dioxo-spiro[2,4-dihydropyrrolo-[3,4-b][1,4,5]oxathiazepine-3,1′-cyclopropane]-6-carboxamide] | > 25 | 190
9 | CC[C@@H]1COc2c(cn(C)c2C(=O)Nc2ccc(F)c(F)c2)S(=O)(=O)N1 [Compound 20, (3R)—N-(3,4-difluorophenyl)-3-ethyl-7-methyl-1,1-dioxo-3,4-dihydro-2H-pyrrolo[3,4-b][1,4,5]oxathiazepine-6-carboxamide] | > 25 | 58
10 | CC1CCOc2c(cn(C)c2C(=O)Nc2ccc(F)c(F)c2)S(=O)(=O)N1 (centres unmarked) [Compound 21, N-(3,4-difluorophenyl)-3,8-dimethyl-1,1-dioxo-2,3,4,5-tetrahydropyrrolo[3,4-b][1,4,5]oxathiazocine-7-carboxamide] | > 25 | 150
11 | CC(C)[C@H]1COc2c(cn(C)c2C(=O)Nc2ccc(F)c(F)c2)S(=O)(=O)N1 [Compound 22, (3S)—N-(3,4-difluorophenyl)-3-isopropyl-7-methyl-1,1-dioxo-3,4-dihydro-2H-pyrrolo[3,4-b][1,4,5]oxathiazepine-6-carboxamide] | > 25 | 9
12 | CC[C@H](C)[C@H]1COc2c(cn(C)c2C(=O)Nc2ccc(F)c(F)c2)S(=O)(=O)N1 [Compound 23, (3 S)—N-(3,4-difluorophenyl)-7-methyl-3-[(1S)-1-methylpropyl]-1,1-dioxo-3,4-dihydro-2H-pyrrolo[3,4-b][1,4,5]oxathiazepine-6-carboxamide] | 10.6 | 5
13 | Cn1cc2c(c1C(=O)Nc1ccc(F)c(F)c1)OCC1(COC1)NS2(=O)=O [Compound 24, N-(3,4-difluorophenyl)-7-methyl-1,1-dioxo-spiro[2,4-dihydropyrrolo-[3,4-b][1,4,5]oxathiazepine-3,3′-oxetane]-6-carboxamide] | > 25 | 68
14 | Cn1cc2c(c1C(=O)Nc1ccc(F)c(F)c1)OC[C@@H](c1ccccc1)NS2(=O)=O [Compound 25, (3R)—N-(3,4-difluorophenyl)-7-methyl-1,1-dioxo-3-phenyl-3,4-dihydro-2H-pyrrolo[3,4-b][1,4,5]oxathiazepine-6-carboxamide] | > 25 | 22
15 | Cn1cc2c(c1C(=O)Nc1ccc(F)c(F)c1)OC[C@H](c1ccccc1)NS2(=O)=O [Compound 26, (3S)—N-(3,4-difluorophenyl)-7-methyl-1,1-dioxo-3-phenyl-3,4-dihydro-2H-pyrrolo[3,4-b][1,4,5]oxathiazepine-6-carboxamide] | > 25 | 27
16 | CC(C)[C@@H]1COc2c(cn(C)c2C(=O)Nc2ccc(F)c(F)c2)S(=O)(=O)N1 [Compound 27, (3R)—N-(3,4-difluorophenyl)-3-isopropyl-7-methyl-1,1-dioxo-3,4-dihydro-2H-pyrrolo[3,4-b][1,4,5]oxathiazepine-6-carboxamide] | > 25 | 110
17 | CC1NS(=O)(=O)c2cn(C)c(C(=O)Nc3ccc(F)c(F)c3)c2OC1C (centres unmarked) [Compound 28, N-(3,4-difluorophenyl)-3,4,7-trimethyl-1,1-dioxo-3,4-dihydro-2H-pyrrolo[3,4-b][1,4,5]oxathiazepine-6-carboxamide] | > 25 | 890
18 | C[C@@H](O)[C@H]1COc2c(cn(C)c2C(=O)Nc2ccc(F)c(F)c2)S(=O)(=O)N1 [Compound 33, (3R)—N-(3,4-difluorophenyl)-3-[(1R)-1-hydroxyethyl]-7-methyl-1,1-dioxo-3,4-dihydro-2H-pyrrolo[3,4-b][1,4,5]oxathiazepine-6-carboxamide] | > 25 | 53
19 | C[C@@H](O)[C@@H]1COc2c(cn(C)c2C(=O)Nc2ccc(F)c(F)c2)S(=O)(=O)N1 [Compound 34, (3S)—N-(3,4-difluorophenyl)-3-[(1R)-1-hydroxyethyl]-7-methyl-1,1-dioxo-3,4-dihydro-2H-pyrrolo[3,4-b][1,4,5]oxathiazepine-6-carboxamide] | > 25 | 56
20 | C[C@H](O)[C@H]1COc2c(cn(C)c2C(=O)Nc2ccc(F)c(F)c2)S(=O)(=O)N1 [Compound 35, (3R)—N-(3,4-difluorophenyl)-3-[(1S)-1-hydroxyethyl]-7-methyl-1,1-dioxo-3,4-dihydro-2H-pyrrolo[3,4-b][1,4,5]oxathiazepine-6-carboxamide] | > 25 | 12
21 | Cn1cc2c(c1C(=O)Nc1ccc(F)c(F)c1)OC[C@H]([C@H](O)c1ccccc1)NS2(=O)=O [Compound 36, (3R)—N-(3,4-difluorophenyl)-3-[(R)-hydroxy(phenyl)methyl]-7-methyl-1,1-dioxo-3,4-dihydro-2H-pyrrolo[3,4-b][1,4,5]oxathiazepine-6-carboxamide] | > 25 | 5
22 | C[C@H](O)[C@@H]1COc2c(cn(C)c2C(=O)Nc2ccc(F)c(F)c2)S(=O)(=O)N1 [Compound 37, (3S)—N-(3,4-difluorophenyl)-3-[(1S)-1-hydroxyethyl]-7-methyl-1,1-dioxo-3,4-dihydro-2H-pyrrolo[3,4-b][1,4,5]oxathiazepine-6-carboxamide] | > 25 | 200
